Results on seven compounds are retold here after article PMC6017830, “Furan- and Thiophene-2-Carbonyl Amino Acid Derivatives Activate Hypoxia-Inducible Factor via Inhibition of Factor Inhibiting Hypoxia-Inducible Factor-1” (Molecules : A Journal of Synthetic Chemistry and Natural …, 2018).

As a reminder, the IC50 is the concentration that inhibits the measured activity by half. The low end stands for inhibition by little substance, the high end for a need for much substance. Usually melting point stands for the temperature of the solid-liquid transition.

“Also recorded” adds a separate entry of the source.

Data set [1] concerns HIF-HRE transcriptional activity in SKN:HRE-MLuc cells (PHD inhibition). In words: HIF activity under normoxia, HRE-MLuc luciferase reporter assay. The class given is cell-based, human. Particulars: normoxic conditions, 100 μM, 24 h. The text has this: We next measured HIF transactivity of FIH-1 inhibitors under normoxic conditions to confirm whether these inhibitors stabilized HIF via inhibiting PHD. Under normoxic conditions, inhibition of PHD dramatically activated HRE reporter. In contrast, when PHD was inhibited under hypoxic conditions, the rate of activation of the HRE reporter was low because hypoxia already partially activated the HRE reporter. The compounds showing HIF activation under hypoxic conditions (compounds 7, 9–11, 15–18, 28, 30, and 38) were evaluated by the luciferase assays in SKN:HRE-MLuc cells under normoxic conditions (Figure 6).
SKN:HRE-MLuc (4 × 10^4) were incubated for 24 h on a 96 well culture plate. The medium was replaced with complete media and the tested compounds (100 μM). DMSO (0.1%) was used as a negative control, and DMOG (100 μM) was used as a positive control. The cells were incubated for 24 h under a humidified atmosphere of 5% CO2 at 37 °C. After incubation, the MLuc activity in culture media was measured with the method descried above.
For orientation: A reporter such as luciferase makes a cellular process visible.

For a further data set, the system named is SKN:HRE-MLuc cells. In words: MTS assay (cellular toxicity). Format: cell-based, human. Particulars: for IC50: Homo sapiens, MTS assay. The text has this: Next, we evaluated the activation of HIF by furan- and thiophene-2-carbonyl amino acid derivatives using the evaluation methods described above. Simultaneously, we investigated cellular toxicity for those derivatives with a 3-(4,5-dimethylthiazol-2-yl)-5-(3-carboxymethoxyphenyl)-2-(4-sulfophenyl)-2H-tetrazolium (MTS) assay. To indicate cellular membrane permeability, the partition coefficients, which are frequently represented by calculated logP (clogP) are listed in Table 1 and Table 2.
Cellular toxicity was measured using the CellTiter 96® Aqueous One Solution Cell Proliferation Assay kit (Promega, Madison, WI, USA). The cells were stimulated with each compound and treated with the CellTiter solution. After incubation for 3 h, the absorbance of the solutions at 492 nm was measured by Multiskan FC (Thermo Fisher Scientific, Waltham, MS, USA). As a negative control, wells with culture media were used. Wells treated with DMSO (0.1%) were used as a positive control. The IC50 values were determined using these controls.
For orientation: Tetrazolium assays rely on reduction of a dye to a coloured formazan, in cell work by metabolically active cells.

The test system of data set [2] is HIF-HRE transcriptional activity in SKN:HRE-MLuc cells (reflects FIH-1 inhibition). Description: HIF activity under hypoxia, HRE-MLuc luciferase reporter assay. Format: cell-based, human. Particulars: for activation at 100 µM / minimal effective concentration: Homo sapiens, SKN:HRE-MLuc cells, 3% O2, 24 h; for activation at 100 µM: read-out: 100 μM Activity (RLU intensity at 100 μM stimulation compared with the positive control DMOG); for minimal effective concentration: doses 100, 25, 6.3, 1.6 μM, DMOG 100 μM as positive control, read-out: 25% Activity (lower dose limit showing 25% of the RLU intensity of the positive control DMOG); for HIF activity (HRE-MLuc reporter), result in words: hypoxic conditions (3% O2), 24 h, reference compounds at 100 μM. The method, then: To evaluate HIF transactivation following FIH-1 inhibition […], we employed a luciferase reporter assay system in the human neuroblastoma cell line SK-N-BE(2)c. […] Hereafter these HRE reporter cells were designated SKN:HRE-MLuc cells.
SKN:HRE-MLuc (4 × 10^4) were incubated for 24 h on a 96 well culture plate. The medium was replaced with complete media and the test compounds (100, 25, 6.3 and 1.6 μM). DMSO (0.1%) was used as a vehicle control, DMOG (100 μM) and FG4592 (100 μM) were used as a PHDs or FIH-1 inhibitor. The cells were incubated for 24 h under a humidified atmosphere of 5% CO2 and 3% O2 at 37 °C. After incubation, the MLuc activity in culture media was measured with luciferase substrate (Takara, Shiga, Japan) by LB960 luminometer (Berthold, Wildbad, Germany). The HIF activity was calculated as the MLuc intensity, based on the vehicle and positive controls. The lower limit dose out of 100 μM, 25 μM, 6.3 μM, 1.6 μM was listed in Table 1 and Table 2, where 25% RLU intensity was measured using DMOG as a positive control.

The subject of data set [3] is HIF-1α mRNA in SK-N-BE(2)c cells. Description: Quantitative RT-PCR of HIF-1α mRNA. Format: cell-based, human. Particulars: 100 μM, 3% O2, SK-N-BE(2)c cells. As to the method:
(§1) To confirm transactivation of HIF by our optimized compounds, the expression of HIF target genes was analyzed with quantitative polymerase chain reaction (PCR) in SK-N-BE(2)c cells. We attempted to analyze several HIF target genes including CA9, VEGF-α, EPO, and PHD3, under 3% O2 conditions.
(§2) Total RNA was extracted from cells using ISOGEN (Nippon Gene, Tokyo, Japan). cDNA syntheses were performed using random hexamer primers and SuperScript II Reverse Transcriptase (Thermo Fisher Scientific) following the manufacturer’s instructions. Quantitative reverse transcription polymerase-chain reaction (RT-PCR) analysis was performed as follows: amplification was done in an initial denaturing step at 96 °C for 2 min, followed by 35 cycles of PCR (96 °C for 1 min, 57 °C for 30 s, 72 °C for 30 s) using recombinant Taq polymerase (Takara, Otsu, Japan) with the respective primer pairs. For human carbonic anhydrase IX (CA9), 5′-CCTGGCTGCTGGTGACATCC-3′ and 5′-AAGGAAGTGGCATAATGAGC-3′. […] Data were analyzed using the comparative Ct method as means of relative quantification, and were normalized to an endogenous reference (β-actin) and relative to a calibrator (normalized Ct value obtained from cells treated with vehicle only). Data were expressed as 2^−ΔΔCt.

In data set [4] the test system is HIF-HRE transcriptional activity in SKN:HRE-MLuc cells (reflects FIH-1 inhibition). Description: HIF activity under hypoxia, HRE-MLuc luciferase reporter assay. The class given is cell-based, human. To be noted: 100 μM; normoxic or hypoxic (3% O2), control or FIH-1 siRNA transfectants, Figure 3c (A vs E, F, G, H).
Data set [5] relates to CA9 mRNA in SK-N-BE(2)c cells. Description: Quantitative RT-PCR of HIF target gene CA9. The class given is cell-based, human. Particulars: 100 μM, 3% O2, SK-N-BE(2)c cells. The method, then: as §1, §2

Turning to `COC(=O)[C@H](Cc1ccc(O)cc1)NC(=O)c1cc(-c2ccccc2)cs1` [Compound 30, (S)-Methyl (4-phenylthiophene-2-carbonyl)tyrosinate], the melting point fell in the range of 176 to 178 °C. In data set [1], the “HIF transactivation (HRE-MLuc reporter), result in words” value (“HIF transactivation (HRE-MLuc reporter)” for short) is given as “did not elicit any HIF transactivation”. Besides, in the data set on SKN:HRE-MLuc cells, the “Cellular toxicity in the MTS assays, result in words” value is “showed cellular toxicity” and the 50% inhibitory concentration (IC50) was 75 µM. Moreover, in data set [2], the activation at 100 µM turned out to be 0%; the minimal effective concentration came to 6.3 µM; the “HIF activity (HRE-MLuc reporter), result in words” value (from here on “HIF activity (HRE-MLuc reporter)”) is “stabilized HIF and transactivated the HRE-driven MLuc reporter”.
`COC(=O)[C@H](Cc1c[nH]c2ccccc12)NC(=O)c1cc(-c2ccccc2)cs1` [Compound 28, (S)-Methyl (4-phenylthiophene-2-carbonyl)tryptophanate] had a melting point of 150 to 152 °C. Besides, the “HIF transactivation (HRE-MLuc reporter)” value in data set [1] is “did not elicit any HIF transactivation”. The 50% inhibitory concentration (IC50) in the data set on SKN:HRE-MLuc cells was > 100 µM. For the same compound, in data set [2], the activation at 100 µM was 0%; the minimal effective concentration is 25 µM; the “HIF activity (HRE-MLuc reporter)” value was “stabilized HIF and transactivated the HRE-driven MLuc reporter”.
For the compound `COC(=O)CNC(=O)C(=O)OC` [DMOG, dimethyloxalyl glycine, reference compound], the “HIF-1α mRNA level, result in words” value in data set [3] is “slightly suppressed”. The “HIF stabilization activity (HRE-MLuc reporter), result in words” value in data set [4] is given as “higher HIF stabilization activity”.
On to `COC(=O)[C@H](Cc1c[nH]c2ccccc12)NC(=O)c1cc2ccccc2o1` [Compound 38, (S)-Methyl (benzofuran-2-carbonyl)tryptophanate], for which the “HIF transactivation (HRE-MLuc reporter)” value in data set [1] is given as “did not elicit any HIF transactivation”. Further, the IC50 in the data set with SKN:HRE-MLuc cells is > 100 µM. For the same compound, in data set [2], the activation at 100 µM amounted to 25%; the minimal effective concentration is 25 µM; the “HIF activity (HRE-MLuc reporter)” value was “stabilized HIF and transactivated the HRE-driven MLuc reporter”.
In the case of `COC(=O)[C@H](Cc1c[nH]c2ccccc12)NC(=O)c1ccc(C)o1` [Compound 9, (S)-Methyl (5-methylfuran-2-carbonyl)tryptophanate], the IC50 with SKN:HRE-MLuc cells is > 100 µM. Moreover, the “CA9 mRNA expression, result in words” value in data set [5] is given as “significantly elevated”. In data set [2], the activation at 100 µM was 22% and the minimal effective concentration stood at 25 µM. Also, in data set [3], the “HIF-1α mRNA level, result in words” value is “slightly suppressed by DMOG treatment but not by treatment with compound 9”.
With `COC(=O)[C@H](Cc1ccccc1)NC(=O)c1ccc(C)o1` [Compound 7, (S)-Methyl (5-methylfuran-2-carbonyl)phenylalaninate], the “HIF transactivation (HRE-MLuc reporter)” value in data set [1] is “did not elicit any HIF transactivation”. The half-maximal inhibitory concentration (IC50) with SKN:HRE-MLuc cells is > 100 µM. In addition, in data set [2], the activation at 100 µM came out at 22%; the minimal effective concentration worked out at 25 µM; the “HIF activity (HRE-MLuc reporter)” value was “stabilized HIF and transactivated the HRE-driven MLuc reporter”.
In the case of `Cc1nc(C(=O)NCC(=O)O)c(O)c2ccc(Oc3ccccc3)cc12` [FG4592, reference compound], in data set [1], the “HIF transactivation (HRE-MLuc reporter)” value is “stabilized HIF compared with vehicle-treated cells; also recorded: showed significant HRE reporter activity”. For the same compound, the “HIF activity (HRE-MLuc reporter)” value in data set [2] is listed as “only slightly stabilized HIF”.
